Laboratory results published in ChEMBL document CHEMBL5137008, “Recent advances of antitumor shikonin/alkannin derivatives: A comprehensive overview focusing on structural classification, synthetic approaches, and mechanisms of action” (Eur J Med Chem, 2022).
≈ marks a conversion by molar mass, not a printed value. Blank lines part the entries; values can stand above or below the compound they belong to.

Assays:
HeLa [1] = assay: Antiproliferative activity against human HeLa cells assessed as inhibition of cell proliferation incubated for 20 hrs by MTT assay; assay type: functional, cell-based
HepG2 [2] = assay: Antiproliferative activity against human HepG2 cells assessed as inhibition of cell proliferation incubated for 20 hrs by MTT assay; assay type: functional, cell-based; details: HepG2, 20 h
MCF7 [3] = assay: Antiproliferative activity against human MCF7 cells assessed as inhibition of cell proliferation incubated for 20 hrs by MTT assay; assay type: functional, cell-based; details: MCF7, 20 h
[4] = Antiproliferative activity against human BGC cells assessed as inhibition of cell proliferation incubated for 20 hrs by MTT assay; assay type: functional, cell-based
A549 [5] = assay: Antiproliferative activity against human A549 cells assessed as inhibition of cell proliferation incubated for 20 hrs by MTT assay; assay type: functional, cell-based; details: A549, 20 h
L02 = assay: Antiproliferative activity against human L02 cells assessed as inhibition of cell proliferation incubated for 20 hrs by MTT assay; assay type: functional, cell-based; details: L02, 20 h
[6] = Antitubulin activity against bovine brain tubulin polymerization preincubated with compound followed by GTP addition by turbidimetry-based spectrophotometric method; set-up: species or system Bos taurus
MG-63 = assay: Antiproliferative activity against human MG-63 cells incubated for 24 hrs by MTT assay; assay type: functional, cell-based; details: MG-63, 24 h
MCF7 [7] = assay: Antiproliferative activity against human MCF7 cells incubated for 24 hrs by MTT assay; assay type: functional, cell-based; details: MCF7, 24 h
B16-F10 = assay: Antiproliferative activity against mouse B16-F10 cells incubated for 24 hrs by MTT assay; assay type: functional, cell-based; details: B16-F10, 24 h
HepG2 [8] = assay: Antiproliferative activity against human HepG2 cells incubated for 24 hrs by MTT assay; assay type: functional, cell-based; details: HepG2, 24 h
MDA-MB-231 = assay: Antiproliferative activity against human MDA-MB-231 cells incubated for 24 hrs by MTT assay; assay type: functional, cell-based; details: MDA-MB-231, 24 h
[9] = Cytotoxicity against human L02 incubated for 24 hrs by MTT assay; assay type: toxicity, cell-based; details: L02 cells
[10] = Cytotoxicity against African green monkey Vero cells incubated for 24 hrs by MTT assay; assay type: toxicity, cell-based, Chlorocebus sabaeus
[11] = Cytotoxicity against human MCF-10A incubated for 24 hrs by MTT assay; assay type: toxicity, cell-based; details: MCF-10A cells
L1210 = assay: Anticancer activity against mouse L1210 cells; assay type: functional; details: read-out: ED50 (the source's name)
A549 [12] = assay: Anticancer activity against human A549 cells; assay type: functional; details: read-out: ED50 (the source's name)
Sarcoma-180 = assay: Antitumor activity against mouse Sarcoma-180 cells xenografted in ip dosed ICR mouse assessed as tumor growth inhibition rate administered daily for 7 days relative to control; assay type: functional; details: time 7 day
[13] = Cytotoxicity against human skin fibroblast cells assessed as reduction in cell viability incubated for 72 hrs by MTT assay; assay type: toxicity, cell-based
K562 = assay: Anticancer activity against human K562 cells assessed as reduction in cell viability for 72 hrs by MTT assay; assay type: functional, cell-based; details: K562, 72 h
MCF7 [14] = assay: Anticancer activity against human MCF7 cells assessed as reduction in cell viability for 72 hrs by MTT assay; assay type: functional, cell-based; details: MCF7, 72 h
HCT-15 = assay: Anticancer activity against human HCT-15 cells assessed as reduction in cell viability for 72 hrs by MTT assay; assay type: functional, cell-based; details: HCT-15, 72 h
[15] = Cytotoxicity against human skin fibroblast cells incubated for 24 hrs by MTT assay; assay type: toxicity, cell-based
[16] = Anticancer activity against human A875 cells assessed as inhibition of cell growth incubated for 24 hrs by MTT assay; assay type: functional, cell-based; details: A875, 24 h
HepG2 [17] = assay: Anticancer activity against human HepG2 cells assessed as inhibition of cell growth incubated for 24 hrs by MTT assay; assay type: functional, cell-based; details: HepG2, 24 h
MCF7 [18] = assay: Antiproliferative activity against human MCF7 cells assessed as inhibition of cell growth incubated for 24 hrs in presence of foetal bovine serum by MTT assay; assay type: functional, cell-based; details: MCF7, 24 h
A549 [19] = assay: Antiproliferative activity against human A549 cells assessed as inhibition of cell growth incubated for 24 hrs in presence of foetal bovine serum by MTT assay; assay type: functional, cell-based; details: A549, 24 h
[20] = Cytotoxicity against human L02 cells assessed as inhibition of cell growth incubated for 24 hrs in presence of foetal bovine serum by MTT assay; assay type: toxicity, cell-based
[21] = Cytotoxicity against human HEK293T cells assessed as inhibition of cell growth incubated for 24 hrs in presence of foetal bovine serum by MTT assay; assay type: toxicity, cell-based, HEK-293T
HeLa [22] = assay: cells; details: Homo sapiens, 24 h

SMILES: CC(=O)O[C@@H]1[C@@H](OC(C)=O)[C@H](Sc2cc(O)c3c(c2O)C(=O)C=C([C@@H](CC=C(C)C)SC2OC[C@@H](OC(C)=O)[C@H](OC(C)=O)[C@H]2OC(C)=O)C3=O)OC[C@H]1OC(C)=O (stereo not given in full)
IC50 [6]: 4670 nM | IC50 (MG-63): 1220 nM | IC50 (MCF7 [7]): 2370 nM | IC50 (B16-F10): 4530 nM | IC50 (HepG2 [8]): 1220 nM | IC50 (MDA-MB-231): 10600 nM | IC50 at 24 h [9]: 132000 nM | IC50 at 24 h [10]: 82500 nM | IC50 at 24 h [11]: 78100 nM

SMILES: CC(C)=CC[C@H](O)C1=CC(=O)c2c(O)ccc(O)c2C1=O [ALKANNIN]
IC50 at 72 h [13]: 1500 nM | IC50 (K562): 1500 nM | IC50 (MCF7 [14]): 2620 nM | IC50 (HCT-15): 1110 nM | IC50 at 24 h [15]: 1800 nM

SMILES: COc1cc2c(c(OC)c1OC)-c1ccc(OC)c(=O)cc1[C@@H](NC(C)=O)CC2 [COLCHICINE]
IC50 [16]: 750 nM | IC50 (HepG2 [17]): 4650 nM | IC50 (MCF7 [18]): 220 nM | IC50 (A549 [19]): 470 nM | IC50 at 24 h [20]: 2300 nM | IC50 at 24 h [21]: 1030 nM | IC50 (HeLa [22]): 17800 nM

Second part, led by results:

IC50 (HeLa [1]): 1930 nM | IC50 (HepG2 [2]): 5350 nM | IC50 (MCF7 [3]): 2550 nM | IC50 (A549 [5]): > 100000 nM
SMILES: CC(C)=CC[C@@H](OC(=O)[C@@H](C)N1C(=O)c2ccccc2C1=O)C1=CC(=O)c2c(O)ccc(O)c2C1=O
IC50 [4]: 13300 nM | IC50 (L02): > 100000 nM

EC50 (L1210): 0.109 µg/mL (≈ 0.441 µM) | EC50 (A549 [12]): > 10 µg/mL
SMILES: CO/N=C/c1cc(O)c2c(c1O)C(=O)C=CC2=O
T/C (Sarcoma-180): 318%
